Experiment [1] has as its target α1G T-type calcium channel (Homo sapiens, UniProt O43497). Briefly: Assay for T-type calcium channel inhibition activity (FDSS6000 calcium imaging, KCl activation). Format: cell-based. Conditions: 75 s pre-treatment then KCl 75 mM, HEK293 cells expressing α1G T-type calcium channel and Kir2.1.
The target in experiment [2] is T1, TREK-1 channel (Rattus norvegicus, UniProt Q920B6).
T1 construct: expressed in transfected cells; host or cells: COS7 (Korean Cell Line Bank), transient transfection with Effectene
T1 sequence (Q920B6 1-426): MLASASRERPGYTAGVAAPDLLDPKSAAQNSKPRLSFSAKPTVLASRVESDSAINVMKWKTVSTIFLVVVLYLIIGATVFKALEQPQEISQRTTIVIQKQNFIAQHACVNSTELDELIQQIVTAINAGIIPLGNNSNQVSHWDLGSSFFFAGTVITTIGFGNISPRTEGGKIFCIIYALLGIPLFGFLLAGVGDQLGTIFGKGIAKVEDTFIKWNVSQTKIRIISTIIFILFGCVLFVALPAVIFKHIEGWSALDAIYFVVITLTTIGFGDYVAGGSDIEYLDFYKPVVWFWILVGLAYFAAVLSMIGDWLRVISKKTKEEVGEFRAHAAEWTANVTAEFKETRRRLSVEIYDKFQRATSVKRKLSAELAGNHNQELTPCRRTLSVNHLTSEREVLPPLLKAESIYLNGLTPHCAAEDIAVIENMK
Briefly: Assay for TREK channel inhibition activity (whole cell patch clamp recording, COS7 cell transfected with GFP-rTREK-1). Format: cell-based. To be noted: COS-7, Table 3 (value ± spread); 101 μM [sic]; COS7 cells, GFP-rTREK-1, whole-cell patch clamp; read-out: block % at 101 μM. The method, boiled down:
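Whole-cell patch clamp was run on COS7 cells 24 h after transfection with GFP-rTREK-1, held at −70 mV, using a 1 s ramp from −100 to +100 mV. Current was taken as the difference between +100 and −100 mV values. Block % = 100 − (current after/before blocker) × 100.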

Sequence of α1G T-type calcium channel (O43497 whole entry): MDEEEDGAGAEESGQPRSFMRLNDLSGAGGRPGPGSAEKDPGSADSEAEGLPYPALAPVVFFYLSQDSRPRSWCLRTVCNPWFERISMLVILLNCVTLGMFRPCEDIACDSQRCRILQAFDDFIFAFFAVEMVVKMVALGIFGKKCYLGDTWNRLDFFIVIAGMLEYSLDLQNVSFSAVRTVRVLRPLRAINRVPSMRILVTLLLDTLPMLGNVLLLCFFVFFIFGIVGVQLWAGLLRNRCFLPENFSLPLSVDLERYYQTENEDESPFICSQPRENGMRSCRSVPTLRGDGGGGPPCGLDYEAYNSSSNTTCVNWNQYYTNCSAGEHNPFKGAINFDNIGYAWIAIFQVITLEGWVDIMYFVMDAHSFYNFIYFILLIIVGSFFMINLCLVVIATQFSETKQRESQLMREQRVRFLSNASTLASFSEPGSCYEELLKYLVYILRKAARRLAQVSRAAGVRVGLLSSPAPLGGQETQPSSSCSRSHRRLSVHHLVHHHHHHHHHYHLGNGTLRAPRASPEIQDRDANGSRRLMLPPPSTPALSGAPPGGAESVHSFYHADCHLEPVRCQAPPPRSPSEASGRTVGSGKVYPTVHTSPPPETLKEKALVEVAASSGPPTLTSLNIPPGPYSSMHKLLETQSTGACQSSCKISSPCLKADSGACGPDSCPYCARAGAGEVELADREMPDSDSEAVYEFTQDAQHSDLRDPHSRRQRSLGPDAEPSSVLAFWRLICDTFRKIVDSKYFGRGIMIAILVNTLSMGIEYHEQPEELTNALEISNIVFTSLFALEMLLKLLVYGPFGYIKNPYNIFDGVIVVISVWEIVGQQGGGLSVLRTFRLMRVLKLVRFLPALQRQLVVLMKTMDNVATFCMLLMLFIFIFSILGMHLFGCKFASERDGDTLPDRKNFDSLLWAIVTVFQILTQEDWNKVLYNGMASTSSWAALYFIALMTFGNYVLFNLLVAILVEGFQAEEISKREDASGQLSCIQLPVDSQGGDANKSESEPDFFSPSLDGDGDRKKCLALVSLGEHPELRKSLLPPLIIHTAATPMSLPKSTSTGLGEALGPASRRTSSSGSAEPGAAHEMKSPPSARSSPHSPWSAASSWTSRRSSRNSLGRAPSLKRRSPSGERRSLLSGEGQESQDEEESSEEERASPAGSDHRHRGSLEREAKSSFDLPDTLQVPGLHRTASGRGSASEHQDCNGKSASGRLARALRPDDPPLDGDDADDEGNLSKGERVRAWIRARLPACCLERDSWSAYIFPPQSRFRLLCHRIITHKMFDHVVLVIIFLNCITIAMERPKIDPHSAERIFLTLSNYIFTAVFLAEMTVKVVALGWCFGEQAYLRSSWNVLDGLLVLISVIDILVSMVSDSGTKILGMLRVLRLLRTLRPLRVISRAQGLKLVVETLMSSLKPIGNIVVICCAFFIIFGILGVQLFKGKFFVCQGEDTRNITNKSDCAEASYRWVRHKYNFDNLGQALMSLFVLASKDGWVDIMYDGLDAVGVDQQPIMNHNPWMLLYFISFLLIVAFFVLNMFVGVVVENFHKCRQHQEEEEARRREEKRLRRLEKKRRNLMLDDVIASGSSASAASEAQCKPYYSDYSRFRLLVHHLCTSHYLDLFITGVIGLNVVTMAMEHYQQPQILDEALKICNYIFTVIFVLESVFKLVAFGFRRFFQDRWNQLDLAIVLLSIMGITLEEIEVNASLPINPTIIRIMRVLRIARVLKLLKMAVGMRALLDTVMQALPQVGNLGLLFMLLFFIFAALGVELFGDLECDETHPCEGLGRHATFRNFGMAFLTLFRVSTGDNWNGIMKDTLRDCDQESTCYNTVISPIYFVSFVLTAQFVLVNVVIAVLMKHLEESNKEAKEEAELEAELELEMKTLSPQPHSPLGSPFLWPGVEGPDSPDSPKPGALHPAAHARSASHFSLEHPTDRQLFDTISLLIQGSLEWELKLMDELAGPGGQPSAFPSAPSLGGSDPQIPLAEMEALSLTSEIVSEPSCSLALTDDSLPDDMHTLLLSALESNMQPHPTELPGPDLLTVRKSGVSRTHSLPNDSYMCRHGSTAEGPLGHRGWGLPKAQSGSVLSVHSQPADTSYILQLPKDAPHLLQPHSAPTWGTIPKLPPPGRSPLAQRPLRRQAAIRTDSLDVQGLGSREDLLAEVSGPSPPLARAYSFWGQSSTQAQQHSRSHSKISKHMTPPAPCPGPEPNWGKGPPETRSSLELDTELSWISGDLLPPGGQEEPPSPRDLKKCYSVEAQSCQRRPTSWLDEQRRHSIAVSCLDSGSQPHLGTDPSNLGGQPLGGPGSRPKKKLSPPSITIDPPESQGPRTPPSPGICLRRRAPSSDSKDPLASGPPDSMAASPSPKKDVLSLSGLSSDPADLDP

For `CC(C)Cc1cc(CNC(=O)CN2CCN(C[C@@H](O)COc3ccc(C(F)(F)F)cc3)CC2)nn1-c1cc(Cl)cc(Cl)c1` [KKRE10218, (R)-N-((1-(3,5-dichlorophenyl)-5-isobutyl-1H-pyrazol-3-yl)methyl)-2-(4-(2-hydroxy-3-(4-(trifluoromethyl)phenoxy)propyl)piperazin-1-yl)acetamide], the inhibition in experiment [1] was 73.5%. The inhibition at 101 µM in experiment [2] turned out to be 76.1 ± 5.79%.
As to `CC(C)Cc1cc(CNC(=O)CN2CCN(C[C@H](O)COc3ccc(C(F)(F)F)cc3)CC2)nn1-c1ccc(F)cc1` [KKRE10219, (S)-N-((1-(4-fluorophenyl)-5-isobutyl-1H-pyrazol-3-yl)methyl)-2-(4-(2-hydroxy-3-(4-(trifluoromethyl)phenoxy)propyl)piperazin-1-yl)acetamide], the inhibition in experiment [1] is 74.1%. Also, the inhibition at 101 µM in experiment [2] was 57 ± 6.08%.
For the molecule `CC(C)Cc1cc(CNC(=O)CN2CCN(C[C@H](O)COc3ccc(C(F)(F)F)cc3)CC2)nn1-c1cc(Cl)cc(Cl)c1` [KKRE10220, (S)-N-((1-(3,5-dichlorophenyl)-5-isobutyl-1H-pyrazol-3-yl)methyl)-2-(4-(2-hydroxy-3-(4-(trifluoromethyl)phenoxy)propyl)piperazin-1-yl)acetamide], the inhibition in experiment [1] came to 35.8%. In experiment [2], the inhibition at 101 µM was found to be 41.4 ± 12.7%.
For `Cc1ccc(F)cc1-n1nc(CNC(=O)CN2CCN(C[C@H](O)COc3ccc(C(F)(F)F)cc3)CC2)cc1CC(C)C` [KKRE10221, (S)-N-((1-(5-fluoro-2-methylphenyl)-5-isobutyl-1H-pyrazol-3-yl)methyl)-2-(4-(2-hydroxy-3-(4-(trifluoromethyl)phenoxy)propyl)piperazin-1-yl)acetamide], in experiment [1], the inhibition came out at 68.9%. Also, in experiment [2], the inhibition at 101 µM is 83.1 ± 4.99%.
For the molecule `Cc1ccccc1-n1nc(CNC(=O)CN2CCN(C[C@H](O)COc3ccc(C(F)(F)F)cc3)CC2)cc1CC(C)C` [KKRE10222, (S)-2-(4-(2-Hydroxy-3-(4-(trifluoromethyl)phenoxy)propyl)piperazin-1-yl)-N-((5-isobutyl-1-o-tolyl-1H-pyrazol-3-yl)methyl)acetamide], the inhibition in experiment [1] is 79.2%. Besides, the inhibition at 101 µM in experiment [2] came out at 51.2 ± 12.5%.
For `CC(C)Cc1cc(CNC(=O)CN2CCN(C[C@@H](O)COc3ccc(F)cc3)CC2)nn1-c1cc(Cl)cc(Cl)c1` [KKRE10223, (R)-N-((1-(3,5-Dichlorophenyl)-5-isobutyl-1H-pyrazol-3-yl)methyl)-2-(4-(3-(4-fluorophenoxy)-2-hydroxypropyl)piperazin-1-yl)acetamide], in that order: 63.4% and 87.6 ± 2.43%.
Consider `Cc1ccc(F)cc1-n1nc(CNC(=O)CN2CCN(C[C@@H](O)COc3ccc(F)cc3)CC2)cc1CC(C)C` [KKRE10224, (R)-N-((1-(5-Fluoro-2-methylphenyl)-5-isobutyl-1H-pyrazol-3-yl)methyl)-2-(4-(3-(4-fluorophenoxy)-2-hydroxypropyl)piperazin-1-yl)acetamide], for which the inhibition in experiment [1] was 77.8%. In addition, the inhibition at 101 µM in experiment [2] was found to be 45.1 ± 3.6%.
In the case of `Cc1ccccc1-n1nc(CNC(=O)CN2CCN(C[C@@H](O)COc3ccc(F)cc3)CC2)cc1CC(C)C` [KKRE10225, (R)-2-(4-(3-(4-Fluorophenoxy)-2-hydroxypropyl)piperazin-1-yl)-N-((5-isobutyl-1-o-tolyl-1H-pyrazol-3-yl)methyl)acetamide], the inhibition in experiment [1] came out at 81.1%. Also, the inhibition at 101 µM in experiment [2] was determined as 13.1 ± 6.19%.
Regarding `CC(C)Cc1cc(CNC(=O)CN2CCN(C[C@@H](O)COc3ccc(F)cc3)CC2)nn1-c1ccc(F)cc1` [KKRE10226, (R)-2-(4-(3-(4-Fluorophenoxy)-2-hydroxypropyl)piperazin-1-yl)-N-((1-(4-fluorophenyl)-5-isobutyl-1H-pyrazol-3-yl)methyl)acetamide], the inhibition in experiment [1] was determined as 78.8%. Moreover, in experiment [2], the inhibition at 101 µM stood at 18.8 ± 7.78%.
In the case of `Cc1ccccc1-n1nc(CNC(=O)CN2CCN(C[C@H](O)COc3ccc(F)cc3)CC2)cc1CC(C)C` [KKRE10227, (S)-2-(4-(3-(4-Fluorophenoxy)-2-hydroxypropyl)piperazin-1-yl)-N-((5-isobutyl-1-o-tolyl-1H-pyrazol-3-yl)methyl)acetamide], in experiment [1], the inhibition is 74.7%. Further, the inhibition at 101 µM in experiment [2] came to 69.8 ± 4.78%.
For `CC(C)Cc1cc(CNC(=O)CN2CCN(C[C@H](O)COc3ccc(F)cc3)CC2)nn1-c1ccc(F)cc1` [KKRE10228, (S)-2-(4-(3-(4-Fluorophenoxy)-2-hydroxypropyl)piperazin-1-yl)-N-((1-(4-fluorophenyl)-5-isobutyl-1H-pyrazol-3-yl)methyl)acetamide], in that order: 73.2% and 58.6 ± 4.35%.
As for `Cc1ccc(F)cc1-n1nc(CNC(=O)CN2CCN(C[C@H](O)COc3ccc(F)cc3)CC2)cc1CC(C)C` [KKRE10229, (S)-N-((1-(5-Fluoro-2-methylphenyl)-5-isobutyl-1H-pyrazol-3-yl)methyl)-2-(4-(3-(4-fluorophenoxy)-2-hydroxypropyl)piperazin-1-yl)acetamide], in experiment [1], the inhibition turned out to be 77.6%. Further, the inhibition at 101 µM in experiment [2] is 74.1 ± 2.75%.
Regarding `CC(C)Cc1cc(CNC(=O)CN2CCN(C[C@H](O)COc3ccc(F)cc3)CC2)nn1-c1cc(Cl)cc(Cl)c1` [KKRE10230, (S)-N-((1-(3,5-Dichlorophenyl)-5-isobutyl-1H-pyrazol-3-yl)methyl)-2-(4-(3-(4-fluorophenoxy)-2-hydroxypropyl)piperazin-1-yl)acetamide], in experiment [1], the inhibition came to 60%. Moreover, the inhibition at 101 µM in experiment [2] amounted to 78.1 ± 2.95%.

(Values after patent US9458120B2, “Phenoxypropanol derivative and pharmaceutical composition including the same” (KOREA INSTITUTE OF SCIENCE AND TECHNOLOGY, priority 2011, dated 2016).)
